Patent US20100273876A1, “ANTIBACTERIAL FORMULATION COMPRISING A DIALKYL SULPHOSUCCINATE AND A CARBANILIDE ANTIBACTERIAL AGENT” (priority 2007, published 2010)
Converted amounts (≈) assume the structure as drawn. Read-outs that look alike come from different tables or passages of the source.

How the values were obtained:
[1] = tested on: C. striatum NCTC 764; assay: (S)DDA disc diffusion; type: cell-based, Corynebacterium striatum; conditions: for DDA: 200 μg per disc
Description: (§1) Several Corynebacterium test species were also used in this study, namely C. mucifaciens ATCC 700355, C. striatum NCTC 764, C. xerosis NCTC 11861 and C. jeikeium NCTC 11915. These Gram-positive pathogens are closely related to organisms (aerobic diphtheroids of the genus Corynebacterium) that cause body odour. C. mucifaciens and C. striatum were cultured and maintained on Mueller-Hinton Medium (agar and broth) and were incubated aerobically at 37° C. for 24 hours. C. xerosis and C. jeikeium were cultured and maintained on Mueller-Hinton Medium containing 5% (v/v) lysed horse blood (agar and broth) and were incubated aerobically at 37° C. for 72 hours. A sterile paper disc was impregnated with a sample of the test compound in a suitable solvent and 30 minutes allowed for the solvents to evaporate (where possible). The disc was then placed on an agar plate onto which the test micro-organism had been inoculated. The plate was then incubated under the conditions described above, following which it was examined visually for signs of microbial growth. If the test compound had antimicrobial activity, a circular zone of no growth would be obtained around the disc. The diameter of this zone of “inhibition” was measured using a ProtoCOL™ automated zone sizer (Synbiosis, Cambridge, UK). In general, a greater diameter and/or area of the zone of inhibition indicates a greater antimicrobial activity in the relevant test compound, although other factors such as test compound mobility through the agar gel may also influence the result. Two test a compounds A and B were placed on a single paper disc and the above described DDA procedure repeated. An increase in diameter of the zone of inhibition, compared to the greater of the zone diameters for the two compounds individually, was taken to indicate potential antimicrobial synergy. In practical terms, an increase of greater than 5 mm could be treated as significant. The activities of DOSS and TCC were determined, using (S)DDAs, against the test organisms C. mucifaciens ATCC 700355, C. striatum NCTC 764, C. xerosis NCTC 11861 and C. jeikeium NCTC 11915. 200 μg of the DOSS and/or the TCC were loaded onto each disc. All the experiments were conducted in triplicate.

[2] = tested on: C. xerosis NCTC 11861; assay: (S)DDA disc diffusion; type: cell-based, Corynebacterium xerosis; conditions: for DDA: 200 μg per disc
Description: as §1

[3] = tested on: P. acnes NCTC 737; assay: Minimum inhibitory concentration (MIC) assay, liquid medium; type: cell-based, Propionibacterium acnes
Description: The propionibacteria were cultured and maintained on Wilkins-Chalgren Anaerobe Medium (agar and broth) at pH 6.0; all cultures were incubated anaerobically at 37° C. for 72 hours.
This is a standard international method for quantitatively assessing the antimicrobial activity of a compound in a liquid medium. The method used a sterile 96-well microtitre plate, capable of holding about 200 μl of liquid per well. The wells contained liquid culture medium and ranges of decreasing concentrations of the relevant test compound in doubling dilutions (eg, 1000, 500, 250, 125 . . . μg/ml, etc. down to 0.49 μg/ml). The culture media were as described above.
The wells were inoculated with a liquid suspension of freshly grown micro-organism and incubated under the conditions described above. After incubation, the microtitre plate was examined visually (with the aid of a light box) for cloudiness in each well, which would indicate microbial growth. The MIC value was recorded as the lowest concentration of test compound required to inhibit microbial growth, ie, the lowest concentration for which the liquid in the well remained clear.
The assays included both negative (culture medium with no micro-organisms) and positive (culture medium plus diluting solvent plus micro-organism) controls.

[4] = tested on: E. faecalis ATCC 29212; assay: (S)DDA disc diffusion; type: cell-based, Enterococcus faecalis; conditions: 200 μg per disc
Description: (§2) A sterile paper disc was impregnated with a sample of the test compound in a suitable solvent and 30 minutes allowed for the solvents to evaporate (where possible). The disc was then placed on an agar plate onto which the test micro-organism had been inoculated. The plate was then incubated under the conditions described above, following which it was examined visually for signs of microbial growth. If the test compound had antimicrobial activity, a circular zone of no growth would be obtained around the disc. The diameter of this zone of “inhibition” was measured using a ProtoCOL™ automated zone sizer (Synbiosis, Cambridge, UK). In general, a greater diameter and/or area of the zone of inhibition indicates a greater antimicrobial activity in the relevant test compound, although other factors such as test compound mobility through the agar gel may also influence the result.
(§3) Two test a compounds A and B were placed on a single paper disc and the above described DDA procedure repeated. […]
(§4) The activities of DOSS and TCC were determined, using (S)DDAs, against a panel of further test micro-organisms, namely B. cereus ATCC 11778, Bact. fragilis ATCC 25285, Clost. difficile […] and E. faecalis ATCC 29212. […]

[5] = tested on: P. acnes NCTC 737; assay: Minimum bactericidal concentration (MBC) assay; type: cell-based, Propionibacterium acnes
Description: The propionibacteria were cultured and maintained on Wilkins-Chalgren Anaerobe Medium (agar and broth) at pH 6.0; all cultures were incubated anaerobically at 37° C. for 72 hours. This assay, normally carried out after an MIC assay, determines the rnininiurn concentration of a compound that is lethal to the micro-organism being tested. […] These samples were then individually sub-cultured on antibiotic-free agar medium, under the incubation conditions described above. Following incubation they were examined visually for microbial growth.

[6] = tested on: P. acnes NCTC 737; assay: Well diffusion assay; type: cell-based, Propionibacterium acnes; conditions: gel (Solutol HS 15, ethanol, hydroxyethyl cellulose, water) with 5% w/w DOSS and/or 0.2% w/w TCC, diluted 1:2 with placebo gel
Description: The propionibacteria were cultured and maintained on Wilkins-Chalgren Anaerobe Medium (agar and broth) at pH 6.0; all cultures were incubated anaerobically at 37° C. for 72 hours. A hole with a diameter of 8 mm was bored into the centre of an agar plate inoculated (swabbed) with the test-microorganism using a sterile “cork” borer (size No. 4). A volume (100 μl unless stated otherwise) of the test compound(s), either formulated or in a suitable solvent, was then placed into the bored hole. The plate was incubated under the conditions described above, following which it was examined visually for signs of microbial growth. If the test compound had antimicrobial activity, a circular zone of no growth would be obtained around the bored hole. The diameter of this zone of “inhibition” was measured using a ProtoCOL™ automated zone sizer (Synbiosis, Cambridge, UK). In general, a greater diameter and/or area of the zone of inhibition indicates a greater antimicrobial activity in the relevant test compound, although other factors such as test compound mobility through the agar gel, and the extent to which a compound is released from a formulation, may also influence the result.

[7] = tested on: B. cereus ATCC 11778; assay: (S)DDA disc diffusion; type: cell-based, Bacillus cereus; conditions: 200 μg per disc
Description: as §2, §3, §4

[8] = 200 μg DOSS + 200 μg TCC on one disc

## O=C(Nc1ccc(Cl)cc1)Nc1ccc(Cl)c(Cl)c1 [TCC, N-(4-chlorophenyl)-N′-(3,4-dichlorophenyl) urea]
[1]
  DDA: 14.08 mm
[2]
  DDA: 11.65 mm
[3]; Cutibacterium acnes, NCTC737, read-out: MIC
  MIC: 0.12 µg/mL (≈ 0.38 µM)
[4]
  DDA: 9.68 mm
[5]; Cutibacterium acnes, NCTC737, read-out: MBC
  MBC: 31.2 µg/mL (≈ 99 µM)
[6]
  (S)DDA: 0 mm
[7]
  DDA: 12.96 mm

## dioctyl sodium sulphosuccinate [DOSS]
[1]
  SDDA area increase: 70.79%
  SDDA increase: 6.0 mm
  DDA: 19.57 mm
[1]; [8]
  SDDA with TCC: 25.57 mm
[2]
  SDDA area increase: 145.4%
  SDDA increase: 6.6 mm
  DDA: 0.0 mm
[2]; [8]
  SDDA with TCC: 18.25 mm
[3]
  MIC: 15.6 µg/mL
[4]
  DDA: 10.31 mm
[5]
  MBC: 62.5 µg/mL
  MIC/MBC ratio: 0.25
[6]
  (S)DDA: 42.40 mm
[7]
  DDA: 18.10 mm
